Patent publication US20100029654A1, “CARDIOVASCULAR COMPOSITIONS AND USE OF THE SAME FOR THE TREATMENT OF ALZHEIMER'S DISEASE” (MOUNT SINAI SCHOOL OF MEDICINE, priority 2006, published 2010)
Structures can show the parent of a compound that is named as a salt. Where two headings read alike, the source gives them in different places.

Assays:
Aβ1-40 = Aβ1-40 content in conditioned medium of primary cortico-hippocampal neuron cultures from Tg2576 mice (ELISA; primary and secondary dose-response screening); assay type: cell-based, mouse; conditions: for activity at 100 µM: Mus musculus, 24 h, read-out: Ab1-40 (% of ctl)
Method in brief: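 Primary cortico-hippocampal neurons from embryonic Tg2576 mice were plated at 1.0×10^5 cells per well on poly-D-lysine-coated 96-well plates in Neurobasal with 2% B27, 0.5 mM L-glutamine and 1% penicillin-streptomycin. Cultures received drug in 1% DMSO, and Aβ1-40 in the conditioned medium was measured by BioSource ELISA 24 hours after treatment, relative to vehicle controls.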

Aβ1-42 [1] = experiment: Aβ1-42 content in conditioned medium of primary cortico-hippocampal neuron cultures from Tg2576 mice (ELISA; primary and secondary dose-response screening); assay type: cell-based, mouse; conditions: for Ab1-42 (% of ctl): drug 100 μM
Method in brief: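 Primary cortico-hippocampal neurons from embryonic Tg2576 mouse brain were seeded on poly-D-lysine-coated 96-well plates at 1.0×10^5 cells per well in serum-free Neurobasal medium with 2% B27, 0.5 mM L-glutamine and 1% penicillin-streptomycin. For primary screening, duplicate wells received 100 μM drug (1% DMSO final). Vehicle-treated cultures served as controls, and Aβ1-42 in conditioned medium was measured by commercial ELISA.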

[2] = tested on: primary cortico-hippocampal neuron cultures; conditions: Tg2576, mouse
Protocol: For in vitro treatments drugs available from “The Spectrum Collection” in stocks of 10 mM in DMSO were applied directly to cultures to the desired concentrations (final 1% DMSO); control primary neuron cultures from Tg2576 embryos were treated with vehicle resulting in a final 1% DMSO.
Cell viability was assessed using a commercial available LDH assay kit according to the manufacture's instruction (Promega).

[3] = tested on: primary cortico-hippocampal neuron cultures; conditions: Tg2576, mouse; remark: listed apart in the source
Aβ1-42 [4] = experiment: Aβ1-42 content in conditioned medium of primary cortico-hippocampal neuron cultures from Tg2576 mice (ELISA; primary and secondary dose-response screening); assay type: cell-based, mouse; conditions: for activity at 100 µM: Mus musculus, 24 h, read-out: Ab1-42 (% of ctl)
Tg2576 mice [5] = experiment: blood pressure (systolic, diastolic, MAP) by tail-cuff; assay type: in vivo, mouse; conditions: Tg2576, 3 weeks
Protocol: FIG. 1 Tg2576 mice are characterized by normal blood pressure under basal conditions. Baseline measurements of systolic, diastolic blood pressure, and mean arteriole blood pressure (MAP) in ˜11 month old female Tg2576 mice. Strain-, age-, gender-matched WT mice were measured using a commercial blood pressure analysis system designed specifically for small rodents (Hatteras Instruments, NC). Following manufacturer's instruction, mice were temporarily immobilized in a restraining chamber and an inflated tail-cuff wrapped around the tail was used to measure the systolic pressure, diastolic pressure, and MAP. Each blood pressure determination was calculated as the mean of 10 individual measurements per animal (n=6-10 group).
FIG. 6A-C show body weight of mice in response to ˜3 weeks of treatment. […] FIG. 6D-F show the assessment of systolic, diastolic, and MAP blood pressure in Tg2576 mice in response to drug doses below or within the range of those prescribed in hypertension. Blood pressure measurements were conducted using a commercial blood pressure analysis system designed specifically for small rodents (Hatteras Instruments, NC). Following manufacturer's instruction, mice were temporarily immobilized in a restraining chamber and an inflated tail-cuff wrapped around the tail was used to measure pressures. Each blood pressure determination was calculated as the mean of 10 individual measurements per animal. In A-F, values represent mean±SEM values, n=3-5 mice per group. 2-tailed t-test: *P<0.05.
Assessment of blood pressure and glucose utilization. Mouse blood pressure was routinely recorded using a commercial blood pressure analysis system designed specifically for small rodents (Hatteras Instruments, NC). […] Briefly, mice were given a single dose of glucose post-prandially (i.p. 2 g/kg body weight). Blood was collected from the tail-vein periodically over a 2-hour period. Blood glycemic content was assessed using the OneTouch LifeScan System, (LifeScan, Milpitas, Calif.) following the manufacturer's instruction.

Aβ1-42 [6] = conditions: Tg2576, short-term dosing, subclinical or clinical concentrations
Protocol: Cognitive behavioral function was assessed using the Morris water maze (MWM). After completion of the MWM test, blood pressure measurements were quantified as describe in FIG. 1 legends. Following MWM testing and blood pressure assessment, mice were sacrificed for neuropathological assessment. […] C, (inset), total immunoreactive APP content normalized to β-actin signal. In C-D, bar graphs represent group mean±SEM, n=6-10 mice per group.
(§1) FIG. 7. […] Bar graphs represent group mean±SEM, n=3 mice per group. 2-tailed t-test: *P<0.05.
(§2) Assessment of AD-type amyloid neuropathology in Tg2576 mice. For quantitative assessment of Aβ peptide in the brain, frozen pulverized tissue was homogenized in 5.0 M guanidine buffer, diluted (1:10) in phosphate-buffered saline containing 0.05% (v/v) Tween-20 and 1 mM Pefabloc protease inhibitors (Roche Biochemicals, Indianapolis, Ind.), and centrifuged for 20 min at 4° C. […] Serum Aβ content was analyzed using the same ELISA Kit, following manufacturer instructions.

α-secretase = conditions: Tg2576, propranolol-HCL, neocortex
Protocol: (§3) Brain samples were homogenized in supplied buffers. Homogenate was then added to secretase-specific APP peptide conjugated to the reporter molecules EDANS and DABCYL. […] Cleavage of APP peptide by secretase physically separates the EDANS and DABCYL reporter molecules, allowing for the release of a fluorescent signal. The level of secretase enzymatic activity is proportional to the fluorometric reaction in the homogenate (R & D Systems).

β-secretase = β-secretase (Mus musculus, UniProt P56818); conditions: Tg2576, propranolol-HCL, neocortex
Protocol: as §3

γ-secretase = conditions: Tg2576, propranolol-HCL, neocortex
Protocol: as §3

Aβ1-42 and Aβ1-40 = Aβ1-42 and Aβ1-40 content in peripheral blood (plasma, serum) by ELISA; assay type: in vivo, mouse
Protocol: as §1, §2

[7] = propranolol-HCL detection in brain and plasma (LC-MS); assay type: in vivo, mouse; conditions: Tg2576, 10 mg/kg/day in drinking water, three weeks
Protocol: In this short-term dosing study, Tg2576 mice were treated with propranolol-HCL for three-weeks at a concentration ˜3 fold lower than used for treatment of hypertension (10 mg/kg/day delivered in the drinking water). At the time of sacrifice, emicerebellum (pool from N=3 per group) was homogenized 0.4 M perchloric acid, centrifuged (3,000×g; 15 min), and the […] layer evaporated by heating (Botterblom et al., 1993), while the residual diethyl-ether and acidic aqueous layer was used for analysis. Plasma from propranolol-HCL treated mice (pooled, n=3 per group) was extracted using a modified protocol (Martin et al., 2004) mixing equal volumes of plasma in 0.1% NaOH. Propanolol-HCL was then extracted by ethyl acetate and centrifuged. The acidic […] layers were then dried, samples were analyzed by tandem liquid chromatography—mass spectrometry, and concentration was determined against an internal standard, in a range of quantification of n between 1-1,000 ng/ml.

Aβ peptides = experiment: Aβ peptide profile in the brain by IP-MS; conditions: Tg2576, 10 or 60 mg/Kg/day, 3 weeks
Tg2576 mice [8] = experiment: tolerability: body weight, fluid consumption, glucose tolerance
[9] = primary screening, drug 100 μM, Tg2576 neuron cultures, table sorted by Aβ1-42
[10] = Primary Screening, drug 100 μM, table sorted by Aβ1-40
[11] = Primary Screening, table sorted by Aβ1-40

β-secretase, sequence (P56818 46-501): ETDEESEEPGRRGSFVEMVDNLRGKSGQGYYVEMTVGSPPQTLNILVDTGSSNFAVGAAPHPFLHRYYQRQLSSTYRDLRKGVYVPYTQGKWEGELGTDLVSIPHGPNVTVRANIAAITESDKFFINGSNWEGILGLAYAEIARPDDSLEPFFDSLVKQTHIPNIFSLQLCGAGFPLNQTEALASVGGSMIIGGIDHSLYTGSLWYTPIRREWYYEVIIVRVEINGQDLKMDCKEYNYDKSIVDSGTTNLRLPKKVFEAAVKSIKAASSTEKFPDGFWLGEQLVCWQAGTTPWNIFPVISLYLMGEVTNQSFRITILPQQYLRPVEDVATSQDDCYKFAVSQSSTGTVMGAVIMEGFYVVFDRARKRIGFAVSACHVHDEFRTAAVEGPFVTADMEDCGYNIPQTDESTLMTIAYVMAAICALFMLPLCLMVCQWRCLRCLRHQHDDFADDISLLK

With `CC(Cc1ccc(O)cc1)NCC(O)c1cc(O)cc(O)c1` (stereo not shown) [Fenoterol Hydrobromide] the activity at 100 µM (Aβ1-40; [9]) was 89.3%, the “Ab1-40 (% of ctl)” value (Aβ1-40; [10]) was 89.3 % of ctl and the “Ab1-42 (% of ctl)” value (Aβ1-42 [1]; [11]) was 78.8 % of ctl. The “reducing Aβ1-42” value (Aβ1-42 [1]; primary screening, <85% of ctl) was “useful in reducing Aβ1-42”, the “LDH (% of ctl)” value [2] was 104.3 % of ctl and the “MTT (% of ctl)” value [3] was 93.9 % of ctl. The activity at 100 µM (Aβ1-42 [4]; [9]) was 78.8%.

With `CC(C)NCC(O)COc1cccc2ccccc12.Cl` (racemic) [Propranolol Hydrochloride (+/−)] the “Ab1-40 (% of ctl)” value (Aβ1-40; [10]) was 65.2 % of ctl, the “reduced Aβ1-40” value (Aβ1-40; primary screening, <85% of ctl) was “reduced Aβ1-40” and the “Ab1-40 (% of ctl)” value (Aβ1-40; [9]) was 65.2 % of ctl. For the same compound, the “Ab1-42 (% of ctl)” value (Aβ1-42 [1]; [11]) was 93.4 % of ctl, the “Ab1-42 (% of ctl)” value (Aβ1-42 [1]; primary screening, Tg2576 neuron cultures, table sorted by Aβ1-42) was 93.4 % of ctl and the “systolic, diastolic, MAP blood pressure” value (Tg2576 mice [5]; doses within the range used for hypertension) was “decreased systolic, diastolic, and MAP blood pressure”. The “systolic, diastolic, MAP blood pressure” value (Tg2576 mice [5]; doses ~3 fold below the minimal hypertension dose) was “did not significantly influence either systolic, diastolic or MAP blood pressure”, the “steady state levels of Aβ1-42 in hippocampal formation or cerebral cortex” value (Aβ1-42 [6]) was “significantly reduced steady state levels of Aβ1-42” and the “α-secretase activity in the brain” value (α-secretase) was “no detectable change”. For the same compound, the “β-secretase activity in the brain” value (β-secretase) was “selective decrease in β-secretase activity”, the “γ-secretase activity in the brain” value (γ-secretase) was “no detectable change” and the “plasma Aβ1-42 levels (and Aβ1-40)” value (Aβ1-42 and Aβ1-40; Tg2576, doses ~3 fold lower than minimal hypertension dose) was “prevented plasma accumulation of Aβ1-42 levels”. The “plasma Aβ1-42 (and Aβ1-40)” value (Aβ1-42 and Aβ1-40; Tg2576, within the dosage range prescribed for hypertension) was “lowering responses were found”, the “level in the cerebellum” value [7] was “nM levels” and the “Aβ1-34, Aβ1-37, Aβ1-38, Aβ1-39, Aβ1-40 in the brain (IP-MS)” value (Aβ peptides) was “dose-dependent reduction of most of the detectable Aβ species”. The “Aβ1-42 content in the neocortex (IP-MS)” value (Aβ peptides) was “dose dependent decrease in Aβ1-42 content”, the fluid intake (Tg2576 mice [8]; Tg2576, short-term dosing) was “did not significantly influence the amount of fluid intake” and the “tolerability (body weight)” value (Tg2576 mice [8]; Tg2576, short-term, 3 weeks, doses ~3 fold below or within hypertension range, drinking water) was “well-tolerated”.

For `Cl.NCCc1ccc(O)c(O)c1` [Dopamine Hydrochloride], the “reduced Aβ1-40” value (Aβ1-40) was “reduced Aβ1-40”, the activity at 100 µM (Aβ1-40; Neuron) was 85% and the “LDH (% of ctl)” value [2] was 559.5 % of ctl. The “MTT (% of ctl)” value [3] was 95.7 % of ctl, the “reducing Aβ1-42” value (Aβ1-42 [4]) was “useful in reducing Aβ1-42” and the activity at 100 µM (Aβ1-42 [4]; Neuron) was 78.3%.
